These results are taken from patent publication US20190064177A1, “INCORPORATING COMPETITIVE BINDING INFORMATION INTO MOLECULAR ARRAY ANALYSIS TO GENERATE FUNCTION NETWORKS OF INTERACTIONS” (ARIZONA BOARD OF REGENTS ON BEHALF OF ARIZONA STATE …, priority 2017, published 2019).

The assay concerns diaphorase. The assay is described as follows: fluorescently labeled diaphorase binding to peptide array with or without excess FAD. The note with it: for 1 microM FAD (array fluorescence of bound diaphorase) / 1 micro no FAD (array fluorescence of bound diaphorase): 1 micromolar labeled diaphorase; for 1 microM FAD (array fluorescence of bound diaphorase) / 10 microM FAD (array fluorescence of bound diaphorase): excess FAD present; for 1 microM FAD (array fluorescence of bound diaphorase) / 1 micro no FAD (array fluorescence of bound diaphorase) / 10 microM FAD (array fluorescence of bound diaphorase) / 10 microM no FAD (array fluorescence of bound diaphorase): 65535 is detector saturation; for 10 microM FAD (array fluorescence of bound diaphorase) / 10 microM no FAD (array fluorescence of bound diaphorase): 10 micromolar labeled diaphorase; for 1 microM noFAD/FAD / 10 microM noFAD/FAD: ratio of binding without FAD to binding with FAD; for 1 microM noFAD/FAD / Meas. ratio: 1 micromolar diaphorase; for 10 microM noFAD/FAD: 10 micromolar diaphorase; for Meas. ratio: ratio without/with FAD calculated from measured binding values. As for the experimental part:
Measurements were performed in which diaphorase was bound to an array of about 126,000 unique sequences. The sequences were chosen simply to cover sequence space. 16 of the natural 20 amino acids were used to make up these sequences with C, I, M and T omitted. The diaphorase was fluorescently labeled and each peptide sequence feature was scanned and fluorescence recorded on the array. Diaphorase bound tightly to some peptides and not at all to others. Two different concentrations of diaphorase were used, 1 and 10 micromolar, and the diaphorase was either bound in the presence of excess FAD or not. […] Indeed the Pearson correlation coefficient between w/ and w/o FAD was >0.97, which actually speaks to the reproducibility of this dataset. However, there are some differences as shown on the scatter plot of FIG. 1. When one takes a ratio of the binding without FAD and the binding with FAD, one finds the following top 30 ratios (Table 1): Note that all these sequences end with a GSG linker sequence. Because there are two concentrations, one can easily check for consistency. Note that 65535 is detector saturation, so one has to ignore those values. For this reason, the lower concentration is used most of the time. […] It appears that this was some kind of error and was ignored in subsequent analysis. A similar conclusion can be made with the 7th highest value. Looking at the sequences, RW or at least R or K followed by a nonpolar or aromatic amino acid at the N-terminus. This is interesting as FAD is negatively charged, though the adenine in FAD looks a bit like tryptophan (see FIG. 2).

Regarding “PRSFGYNNVGGSG [array peptide with C-terminal GSG linker]”, the “1 microM FAD (array fluorescence of bound diaphorase)” value amounted to 2525.5, the “1 micro no FAD (array fluorescence of bound diaphorase)” value was found to be 6842.5, the “10 microM FAD (array fluorescence of bound diaphorase)” value is 40495.5 and the “10 microM no FAD (array fluorescence of bound diaphorase)” value worked out at 65535. The “1 microM noFAD/FAD” value came to 2.709, the “10 microM noFAD/FAD” value is on record as 1.618 and the Meas. ratio is 2.71.
As to “RYNLYKPSDGSG [array peptide with C-terminal GSG linker]”, the “1 microM FAD (array fluorescence of bound diaphorase)” value is listed as 1245.75, the “1 micro no FAD (array fluorescence of bound diaphorase)” value amounted to 3569.5, the “10 microM FAD (array fluorescence of bound diaphorase)” value was 18165 and the “10 microM no FAD (array fluorescence of bound diaphorase)” value is 50327.75. Also, the “1 microM noFAD/FAD” value is recorded as 2.865, the “10 microM noFAD/FAD” value is given as 2.771 and the Meas. ratio is given as 2.87.
Regarding “RLQYLFKSDGSG [array peptide with C-terminal GSG linker]”, the “1 microM FAD (array fluorescence of bound diaphorase)” value is 1964.75, the “1 micro no FAD (array fluorescence of bound diaphorase)” value is recorded as 5778.25, the “10 microM FAD (array fluorescence of bound diaphorase)” value was determined as 30591 and the “10 microM no FAD (array fluorescence of bound diaphorase)” value is on record as 64328.25. Moreover, the “1 microM noFAD/FAD” value is listed as 2.941, the “10 microM noFAD/FAD” value turned out to be 2.103 and the Meas. ratio is reported as 2.94.
On to “DLFQLVFSGSG [array peptide with C-terminal GSG linker]”, for which the “1 microM FAD (array fluorescence of bound diaphorase)” value is recorded as 9011, the “1 micro no FAD (array fluorescence of bound diaphorase)” value was found to be 5775, the “10 microM FAD (array fluorescence of bound diaphorase)” value was 65535 and the “10 microM no FAD (array fluorescence of bound diaphorase)” value is on record as 32672.5. Besides, the “1 microM noFAD/FAD” value was determined as 0.6409, the “10 microM noFAD/FAD” value was 0.4986 and the Meas. ratio was 0.64.
Consider “AFNVWQYFEGGSG [array peptide with C-terminal GSG linker]”, for which the Meas. ratio is 0.73.
Turning to “WHLLGWVGYGGSG [array peptide with C-terminal GSG linker]”, the Meas. ratio is 0.70.
“KHSFQKELGGSG [array peptide with C-terminal GSG linker]”: the “1 microM FAD (array fluorescence of bound diaphorase)” value is 727.5, the “1 micro no FAD (array fluorescence of bound diaphorase)” value was 2086, the “10 microM FAD (array fluorescence of bound diaphorase)” value is 300.5 and the “10 microM no FAD (array fluorescence of bound diaphorase)” value is reported as 2387.25. In addition, the “1 microM noFAD/FAD” value is listed as 2.867, the “10 microM noFAD/FAD” value is on record as 0.7943 and the Meas. ratio is 2.87.
Turning to NHLLEGAFVSEGS, the Meas. ratio is 0.77.
Consider “FGKLYQLYNDGSG [array peptide with C-terminal GSG linker]”, for which the “1 microM FAD (array fluorescence of bound diaphorase)” value was determined as 3049, the “1 micro no FAD (array fluorescence of bound diaphorase)” value is 1911.25, the “10 microM FAD (array fluorescence of bound diaphorase)” value amounted to 34155 and the “10 microM no FAD (array fluorescence of bound diaphorase)” value was found to be 15703. In addition, the “1 microM noFAD/FAD” value was found to be 0.6268, the “10 microM noFAD/FAD” value amounted to 0.4598 and the Meas. ratio is listed as 0.63.
For “PRYSGQYGGSG [array peptide with C-terminal GSG linker]”, the “1 microM FAD (array fluorescence of bound diaphorase)” value came to 3234.25, the “1 micro no FAD (array fluorescence of bound diaphorase)” value stood at 8432.75, the “10 microM FAD (array fluorescence of bound diaphorase)” value was found to be 45157.75 and the “10 microM no FAD (array fluorescence of bound diaphorase)” value is 65535. Also, the “1 microM noFAD/FAD” value was 2.607, the “10 microM noFAD/FAD” value was found to be 1.451 and the Meas. ratio is given as 2.61.
As for “YRPYGPVYNGGSG [array peptide with C-terminal GSG linker]”, the “1 microM FAD (array fluorescence of bound diaphorase)” value stood at 6762.5, the “1 micro no FAD (array fluorescence of bound diaphorase)” value is recorded as 18709.5, the “10 microM FAD (array fluorescence of bound diaphorase)” value was 65535 and the “10 microM no FAD (array fluorescence of bound diaphorase)” value came out at 65535. The “1 microM noFAD/FAD” value is 2.767, the “10 microM noFAD/FAD” value came out at 1 and the Meas. ratio is recorded as 2.77.
“HVYGLNLFDGSG [array peptide with C-terminal GSG linker]”: the Meas. ratio is 0.72.
As to “RYAYFQHLGGSG [array peptide with C-terminal GSG linker]”, the “1 microM FAD (array fluorescence of bound diaphorase)” value was found to be 4971.5, the “1 micro no FAD (array fluorescence of bound diaphorase)” value is recorded as 13584.75, the “10 microM FAD (array fluorescence of bound diaphorase)” value was 64053.5 and the “10 microM no FAD (array fluorescence of bound diaphorase)” value worked out at 65535. The “1 microM noFAD/FAD” value turned out to be 2.733, the “10 microM noFAD/FAD” value came to 1.023 and the Meas. ratio is 2.73.
Consider “ARWQQYKFGGSG [array peptide with C-terminal GSG linker]”, for which the Meas. ratio was 2.18.
As for “YRFAQYKGQKDGSG [array peptide with C-terminal GSG linker]”, the “1 microM FAD (array fluorescence of bound diaphorase)” value was 1604.25, the “1 micro no FAD (array fluorescence of bound diaphorase)” value was 4467.75, the “10 microM FAD (array fluorescence of bound diaphorase)” value is on record as 19933.75 and the “10 microM no FAD (array fluorescence of bound diaphorase)” value came out at 56915. Further, the “1 microM noFAD/FAD” value turned out to be 2.785, the “10 microM noFAD/FAD” value was 2.855 and the Meas. ratio is listed as 2.78.
Regarding “RFGQNLPLGGSG [array peptide with C-terminal GSG linker]”, the “1 microM FAD (array fluorescence of bound diaphorase)” value stood at 2103.25, the “1 micro no FAD (array fluorescence of bound diaphorase)” value is recorded as 5802.25, the “10 microM FAD (array fluorescence of bound diaphorase)” value worked out at 34712 and the “10 microM no FAD (array fluorescence of bound diaphorase)” value came out at 63502.5. Also, the “1 microM noFAD/FAD” value turned out to be 2.759, the “10 microM noFAD/FAD” value was found to be 1.829 and the Meas. ratio is given as 2.76.
“VKDGNKHYWRVSGSG (VKDGANKHYWRVSGSG) [array peptide with C-terminal GSG linker]”: the “1 microM FAD (array fluorescence of bound diaphorase)” value was 12347.25, the “1 micro no FAD (array fluorescence of bound diaphorase)” value was 2221, the “10 microM FAD (array fluorescence of bound diaphorase)” value is 17803.5 and the “10 microM no FAD (array fluorescence of bound diaphorase)” value came out at 20355.75. The “1 microM noFAD/FAD” value came to 0.1799, the “10 microM noFAD/FAD” value turned out to be 1.143 and the Meas. ratio is reported as 0.18.
On to “RWQYYNQKFGSG [array peptide with C-terminal GSG linker]”, for which the “1 microM FAD (array fluorescence of bound diaphorase)” value is listed as 5458, the “1 micro no FAD (array fluorescence of bound diaphorase)” value stood at 15697.5, the “10 microM FAD (array fluorescence of bound diaphorase)” value was 65535 and the “10 microM no FAD (array fluorescence of bound diaphorase)” value was 65535. For the same sequence, the “1 microM noFAD/FAD” value came out at 2.876, the “10 microM noFAD/FAD” value is on record as 1 and the Meas. ratio is recorded as 2.88.
Turning to “RFKYPLDGGSG [array peptide with C-terminal GSG linker]”, the “1 microM FAD (array fluorescence of bound diaphorase)” value was determined as 2199.25, the “1 micro no FAD (array fluorescence of bound diaphorase)” value worked out at 5764.75, the “10 microM FAD (array fluorescence of bound diaphorase)” value turned out to be 30389 and the “10 microM no FAD (array fluorescence of bound diaphorase)” value was determined as 55899.25. Also, the “1 microM noFAD/FAD” value worked out at 2.621, the “10 microM noFAD/FAD” value is given as 1.839 and the Meas. ratio was 2.62.
With “LDRLGEYQFSGSG [array peptide with C-terminal GSG linker]”, the “1 microM FAD (array fluorescence of bound diaphorase)” value was found to be 1164.75, the “1 micro no FAD (array fluorescence of bound diaphorase)” value stood at 709.25, the “10 microM FAD (array fluorescence of bound diaphorase)” value is 7142.5 and the “10 microM no FAD (array fluorescence of bound diaphorase)” value was 2995.75. The “1 microM noFAD/FAD” value came to 0.6089, the “10 microM noFAD/FAD” value came to 0.4194 and the Meas. ratio is on record as 0.61.
Take “SGVLQFFGGSG [array peptide with C-terminal GSG linker]”: the Meas. ratio is recorded as 0.70.
“AFYGLELGGSG [array peptide with C-terminal GSG linker]”: the “1 microM FAD (array fluorescence of bound diaphorase)” value came out at 4182.5, the “1 micro no FAD (array fluorescence of bound diaphorase)” value was 2264.25, the “10 microM FAD (array fluorescence of bound diaphorase)” value turned out to be 36729 and the “10 microM no FAD (array fluorescence of bound diaphorase)” value is listed as 16544. For the same sequence, the “1 microM noFAD/FAD” value came out at 0.5414, the “10 microM noFAD/FAD” value came out at 0.4504 and the Meas. ratio is listed as 0.54.
Regarding VSWVFGLGHEGGS, the Meas. ratio is 0.71.
On to “RQRYPKVSGGSG [array peptide with C-terminal GSG linker]”, for which the Meas. ratio is 1.71.
